Test results: PubChem BioAssay AID540268 (Broad Institute, 2011)
Activity calls are given as the source filed them. No rule for the calls is given here.

Assay: reduced viability of parasite-Hsp90 expressing yeast – ATP luminescence, 48 h, cherry-picked samples, anti-malarial Hsp90 inhibitor project, dose response (AID 540268);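 as to activity change, negative = inhibition: 0% = neutral control wells and -100% = positive control wells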
Settings: yeast expressing the parasite Hsp90, ATP luminescence

Structure (SMILES)	AC50 [µM]
O=[N+]([O-])c1ccc(C=Nc2ccc(Cl)c([N+](=O)[O-])c2)s1	2.13
Cc1sc2nc(C3CC3)nc(SCC(=O)NCc3ccco3)c2c1C	7.33
CCN(CC)S(=O)(=O)c1cccc(NC(=O)c2ccc(Br)cc2)c1	5.81
O=[N+]([O-])/C=C/c1cn(Cc2ccc(F)cc2)c2ccccc12	5.61
Cc1ccc(S(=O)(=O)N(C(=O)c2ccncc2)c2ccc(OC(=O)c3ccncc3)cc2)c(C)c1	3.45
CCN(CC)S(=O)(=O)c1cccc(C(=O)NCC(c2ccccc2)N(C)C)c1 (configuration not stated)	3.92
Oc1c(C(Nc2ccccn2)c2cccnc2)cc(Cl)c2cccnc12 (configuration not stated)	8.09
COc1ccc(/C=C/C(=O)NC(=S)NNC(=O)c2cnccn2)cc1	0.854
O=C(/C(=C/O)N=Nc1ccccc1)c1ccc(Cl)cc1	6.25
Oc1ccc(N=Nc2nc(-c3ccccc3)c(-c3ccccc3)[nH]2)cc1	6.13
CCC1=NN2C(=N)/C(=C\c3cccn3-c3ccc(C)cc3C)C(=O)N=C2S1	8.14
Oc1c(Br)cc(Br)cc1C=NCc1ccccc1	7.51
Cc1csc(CNc2ncnc3ccc(-c4cccc(Cl)c4)cc23)c1	8.17
Oc1c(Br)cc(Br)cc1C=Nc1cccnc1	5.8
Cc1[nH]oc(=O)c1N=Nc1c(Cl)cccc1Cl	24.9
Cn1c(SCC(=O)N/N=C/c2ccc([N+](=O)[O-])s2)nnc1-c1ccc(Cl)cc1	2.3
CC(=NNc1nc2ccccc2s1)c1ncccn1	2.36
O=C1OC(c2ccccc2)(c2cc(Br)c(O)c(Br)c2)c2ccccc21 (configuration not stated)	2.97
CCCCCC(=O)N(O)C1CC(=O)N(c2ccccc2)C1=O (configuration not stated)	1.13
COc1ccc(/C=C/C(=O)c2cc(Br)ccc(=O)c2O)cc1	3.21
CCC(=O)OC1(C)C(=O)C2=COC(c3ccc(OC)cc3)=CC2=C(Br)C1=O (configuration not stated)	2.81
O=C1c2cc(F)ccc2-n2c1nc1ccccc1c2=O	2.96
Cc1ccc(N=Cc2c(C)[nH]n(-c3nc4ccccc4[nH]3)c2=O)cc1	2.4
O=C(/C=C/c1ccccc1)CCN1CCCCC1	4.02
O=C(c1ccccc1)c1ccccc1N1C(=O)C=CC1=O	1.71
COc1ccccc1OCc1cc(C(=O)N2CCN(C)C(c3ccccc3)C2)no1 (configuration not stated)	3.05

Structure (SMILES)	AC50 [µM]
Oc1cc(Cl)c(Cl)c(Cl)c1Cl	1.7
Cn1c(O)c(C(=Nc2ccc(F)cc2)c2ccccc2Cl)c(=O)n(C)c1=O	2.28
Cc1cccc(C)c1OCC(=O)NNC(=S)NC(=O)C1CC1	1.35
O=C1NC(=S)S/C1=C\c1cc2ccccc2nc1N1CCCCC1	8.4
CC1OC(CC(=O)O)CC2=C1C(=O)c1c(O)cccc1C2=O (configuration not stated)	< 0.195
CC(=NNC(=S)N1CC2CCC(CC2)C1)c1nccs1	25.7
Cc1ccc(N2C(=O)C3C4C=CC(CNC(=S)N5CCN(c6ccccn6)CC5)(O4)C3C2=O)cc1 (configuration not stated)	8.31
N#CSCC(=O)c1cccc2ccccc12	1.92
Cc1ccc(C)c(/C=C/C(=O)c2ccccc(=O)c2O)c1	2.19
CCC(=O)NC(c1ccc(C)cc1)c1ccc2cccnc2c1O (configuration not stated)	3.48
CC(=NNC(=S)Nc1ccccc1Cl)c1ccccn1	3.91
O=C(CC(O)(C(F)(F)F)C(F)(F)F)Nc1ccc(Cl)c(Cl)c1	17.5
Oc1cc(Cl)ccc1Oc1ccc(Cl)cc1Cl	7.54
Oc1ccc(C2=NN(c3ccccc3)C(c3ccc(F)cc3)C2)cc1 (configuration not stated)	3.35
COc1ccc2c(c1)[C@H]1[C@H](CO2)[C@H](c2ccccc2)[C@]2(C)C(=O)Nc3ccc(C)cc3C(=O)N12	4.75
O=C1Nc2ccc(Br)cc2C12NNc1ccccc1O2 (configuration not stated)	1.46
O=[N+]([O-])c1ccc(O)c2ncccc12	1.66
CC(=O)C1=C(c2ccc(Br)cc2)C(=O)c2ccccc2C1=O	7.82
CCCC1COC(Cn2cncn2)(c2ccc(Cl)cc2Cl)O1 (configuration not stated)	< 0.195
CCC(C)(C)c1ccc(OCCCC[n+]2cccc(C)c2C)c(C(C)(C)CC)c1	4.06
Oc1c(Br)cc(Br)c(/C=N/n2c(-c3ccccc3)n[nH]c2=S)c1Br	10.4
O=C1C=C(c2cccs2)C[C@H](c2ccccc2)[C@H]1n1nnc([N+](=O)[O-])n1	11.8
O=Cc1ccc(O)c2ncccc12	< 0.195
Cc1ccc(OCC(=O)NNC(=S)NC(=O)C2CC2)c(C)c1	4.16
COC(=O)C1=C(C(=O)OC)C2OC1c1cc3ccccc3cc12	1.92
Clc1ccc(N=c2ssnc2Cl)cc1	2.69

Structure (SMILES)	AC50 [µM]
COc1ccc(Cl)cc1C(Nc1cccnc1)c1ccc2cccnc2c1O (configuration not stated)	1.35
Cc1ccc(NS(=O)(=O)c2ccc(N3CCN(c4ccc(O)cc4)CC3)c([N+](=O)[O-])c2)c(C)c1	5.7
O=C(Nc1cccc(C(F)(F)F)c1)Oc1ccc(Cl)c2cccnc12	4.93
O=C(/C=C/c1cccc([N+](=O)[O-])c1)c1ccc([N+](=O)[O-])o1	< 0.195
COC(=O)c1ccc(N2C(=O)CC(N(C)Cc3ccccc3)C2=O)cc1 (configuration not stated)	8.53
Cc1cc(C)c2c(N=NN3CCOCC3)[nH]nc2n1	7.65
Oc1c(C(Nc2cccc(C(F)(F)F)c2)c2ccncc2)ccc2cccnc12 (configuration not stated)	5.15
COc1ccc(C2=CC3=C(Br)C(=O)C(C)(O)C(=O)C3=CO2)cc1 (configuration not stated)	1.73
CCCC(=O)NC(c1ccccc1)c1ccc2cccnc2c1O (configuration not stated)	4.7
CCn1c(CNc2ccc(Cl)cc2)nnc1SCc1ccccc1	2.26
O=c1c2ccccc2nnn1CSc1nnc(COc2ccc(Cl)cc2)n1Cc1ccco1	3.31
Cc1cc(N=Nc2ccc3ccccc3c2)ccc1O	2.93
CCCCCCC(=O)N(O)C1CC(=O)N(c2ccc(Br)cc2)C1=O (configuration not stated)	2.22
CSc1nc2ccc(S(=O)(=O)NC3CCCCC3)cc2s1	2.92
O=C1c2ccccc2NC(c2ccc(-c3ccc(Br)cc3)o2)N1O (configuration not stated)	7.96
CCC(C)n1ncn(-c2ccc(N3CCN(c4ccc(OCC5COC(Cn6cncn6)(c6ccc(Cl)cc6Cl)O5)cc4)CC3)cc2)c1=O (configuration not stated)	< 0.195
C[C@@]12C(=O)Nc3ccc(F)cc3C(=O)N1[C@H]1c3ccccc3OC[C@@H]1[C@@H]2c1ccccc1	< 0.195
O=C(/C=C/c1ccccc1)CCN1CCOCC1	2.47
O=C(NN1C(=O)/C(=C\c2ccc(O)c([N+](=O)[O-])c2)SC1=S)c1ccccc1Cl	5.92
Cc1cc(-c2cc(-c3ccc(Cl)cc3)nc(N)c2C#N)co1	5.34
Cc1c(OCC(=O)C(C)(C)C)ccc2c(-c3ccccc3)cc(=O)oc12	8.35
O=C(Nc1nc(-c2ccco2)c(-c2ccco2)s1)c1ccco1	6.08
Oc1c(CN2CCc3ccccc3C2)cc(Cl)c2cccnc12	7.82
Cc1cccc(N=C2c3cc([N+](=O)[O-])ccc3-c3c2cc([N+](=O)[O-])cc3[N+](=O)[O-])c1	9.02
CCOC(=O)COc1ccc2ccccc2c1/C=C/[N+](=O)[O-]	4.46

Same assay, conditions: yeast expressing the parasite Hsp90, ATP luminescence, at 26 µM (top of the series)

Structure (SMILES)	activity change, negative = inhibition
N#C/C(=C/c1ccc(O)cc1)C(=O)NCc1ccc(Cl)cc1	10.6% (inactive)
CC(C)(C)c1nn(-c2ccccc2)c2[nH]c(=O)c(CNc3ccc4c(c3)OCCO4)cc12	-106% (inactive)
O=C1C=CC(=O)N1Cc1ccccc1	21.3% (inactive)
NC(=O)/C=C\C(=O)Nc1cccc(C(F)(F)F)c1	12.6% (inactive)
C/C(CC(=O)Nc1cc(C)ccn1)=N\NC(=O)c1cccc(C)c1O	-51.7% (inactive)
